In paper PMC7589992 (Pharmaceutics, 2020):
Read-outs that look alike come from different tables or passages of the source.

How the values were obtained:
[1] = ThT binding to supramolecular complexes, plate reader fluorescence; assay type: physicochemical; details: all pH-values tested (5, 6.5, 7.4); 50 µM insulin or PTH(1-34) or 200 µM penetratin alone, 100 µM ThT; N = 3
[2] = In vitro stability during apical incubation on Caco-2 cell monolayers; assay type: in vitro ADME, human; details: human, peptide alone, 5 µM, 37 °C, RP-HPLC, N = 3, mean ± SD, read-out: intact peptide remaining after 4 h, % of initial concentration
Protocol: (§1) At 80% confluency the cells were sub-cultured by detaching them from the culture flasks by trypsin-EDTA treatment. […] [17]. Briefly, The Caco-2 cell monolayers were washed twice apical and basolateral with 37 °C hHBSS and equilibrated to room temperature in the last washing volume. The transepithelial electrical resistance (TEER) was measured using an EVOM equipped with an Endohm-12 cup (World Precision Instruments, Sarasota, FL, USA) to validate the barrier integrity of the monolayer. Following equilibration to 37 °C the filter inserts were transferred to empty 6-well plates in order to block permeation across the monolayer. […] The kinetics of the metabolic degradation was evaluated by analytical RP-HPLC as described under the ultracentrifugation procedure.

[3] = system: Caco-2 cell monolayers; assay: as above; assay type: in vitro ADME, human; details: 37 °C, RP-HPLC; for peptide remaining after 4 h in physical mixture with penetratin, % of initially applied: 5 µM peptide + 20 µM penetratin, N = 3, mean ± SD
Protocol: as §1

[4] = system: Caco-2 cell monolayers; assay: In vitro transepithelial permeation across Caco-2 cell monolayers; assay type: in vitro ADME, human; details: Caco-2, apical to basolateral, 3 h, 37 °C, ELISA/EIA, N = 3, n = 3; for effect on permeation of lowering the sample pH from 6.5 or 7.4 to pH 5, without penetratin (in words): 5 µM peptide alone
Protocol: At 80% confluency the cells were sub-cultured by detaching them from the culture flasks by trypsin-EDTA treatment. […] Caco-2 cell monolayers were washed twice apical and basolateral with 37 °C hHBSS. The cells were equilibrated to room temperature in the last washing volume before TEER was measured using an EVOM equipped with an Endohm-12 cup (World Precision Instruments, Sarasota, FL, USA) and equilibration to 37 °C. […] The permeation study was initiated by careful transfer of the filter inserts to fresh 12-well plates containing 1 mL 37 °C hHBSS. The experiment was performed on a 37 °C shaking table (50 rpm). 100 µL test samples were withdrawn from the basolateral compartment at time-points 0, 60, 120 and 180 min and stored at −20 °C. The sample volume was immediately replaced with 37 °C hHBSS.

[5] = In situ rat intestinal injection: plasma insulin or PTH(1-34); assay type: in vivo; details: intraintestinal
Protocol: 100 μL test samples were withdrawn from the basolateral compartment at time-points 0, 60, 120 and 180 min and stored at -20 °C. The sample volume was immediately replaced with 37 °C hHBSS. […] Male Sprague Dawley rats (Taconic, Ejby, Denmark) weighing ~250 g were allowed to acclimatize for at least 8 days at 20-22 °C and 45-65% humidity with free access to water and food. The rats were fasted for 18 h prior to surgery. Hypnorm (fentanyl 0.315 mg/mL and fluanisone 10 mg/mL) (Glostrup apotek, Glostrup, Denmark) and Dormicum (midazolam 5 mg/mL) (Nomeco, Copenhagen, Denmark) were mixed 1:1 (v/v) with ultrapure water and used for anesthesia. The initial dose was 2 mL/kg and subsequent doses of 1 mL/kg were given every 20 min within the first hour and thereafter every 40 min to keep the animals anaesthetized. All doses of anesthetics were administered subcutaneously in the neck region. The abdominal wall was cut open and the small intestine localized. A 10 cm PE-50 catheter (Smiths Medical, Keene, NH, USA) was inserted into the middle of the intestine and secured with a 3/0 suture (Braun, Tuttlingen, Germany). Care was taken not to interrupt the mesenteric blood flow. The intestine was hydrated with 1-2 mL isotonic sodium chloride solution before the rat abdominal wall was closed with 9 mm clips using the AutoClip Wound Closure System (Alzet, Cupertino, CA, USA). […] The blood samples were placed on ice prior isolation of the plasma by centrifugation at 2000× g at 4 °C for 10 min (Eppendorf centrifuge 5424, Eppendorf, Hamburg, Germany). Blood glucose was measured at time points of 15, 30, 45, 60, 90, and 120 min after dosing using an On-Call blood glucose meter (Acon, San Diego, CA, USA). After the final blood sampling, the animals were euthanized while still under anesthesia using 90% CO2 in O2 [19]. The abdominal wall of the rats was reopened after the experiment to ensure the catheter was still in place. Likewise, control of potential damage to the intestine was determined macroscopically. The experiments were conducted in strict compliance with the national animal research license 2009/561-1622.

[6] = Visual inspection of samples at the concentrations applied in vivo; assay type: physicochemical; details: PTH(1-34) mixed with penetratin
[7] = no reference given; cited from earlier work
[8] = system: Male Sprague Dawley rats; assay: In situ rat intestinal injection: blood glucose; assay type: in vivo; details: intraintestinal
Protocol: Male Sprague Dawley rats (Taconic, Ejby, Denmark) weighing ~250 g were allowed to acclimatize for at least 8 days at 20–22 °C and 45–65% humidity with free access to water and food. The rats were fasted for 18 h prior to surgery. Hypnorm (fentanyl 0.315 mg/mL and fluanisone 10 mg/mL) (Glostrup apotek, Glostrup, Denmark) and Dormicum (midazolam 5 mg/mL) (Nomeco, Copenhagen, Denmark) were mixed 1:1 (v/v) with ultrapure water and used for anesthesia. The initial dose was 2 mL/kg and subsequent doses of 1 mL/kg were given every 20 min within the first hour and thereafter every 40 min to keep the animals anaesthetized. All doses of anesthetics were administered subcutaneously in the neck region. The abdominal wall was cut open and the small intestine localized. A 10 cm PE-50 catheter (Smiths Medical, Keene, NH, USA) was inserted into the middle of the intestine and secured with a 3/0 suture (Braun, Tuttlingen, Germany). Care was taken not to interrupt the mesenteric blood flow. The intestine was hydrated with 1–2 mL isotonic sodium chloride solution before the rat abdominal wall was closed with 9 mm clips using the AutoClip Wound Closure System (Alzet, Cupertino, CA, USA). The animal was left on a 37 °C heating plate (Scandidact, Kvistgaard, Denmark) for 30 min prior dosing of the test samples to allow normalization of the potentially elevated blood glucose level resulting from stress induced by handling and surgery. […] A volume of 200 µL air was injected immediately after dosing to fully empty the catheter into the intestinal lumen. 200 µL blood samples were collected from the tail vein at time points 0, 5, 15, 30, 45, 60, 90, and 120 min into EDTA-coated microcuvette vials (Sarstedt, Nümbrecht, Germany). The blood samples were placed on ice prior isolation of the plasma by centrifugation at 2000× g at 4 °C for 10 min (Eppendorf centrifuge 5424, Eppendorf, Hamburg, Germany). Blood glucose was measured at time points of 15, 30, 45, 60, 90, and 120 min after dosing using an On-Call blood glucose meter (Acon, San Diego, CA, USA). After the final blood sampling, the animals were euthanized while still under anesthesia using 90% CO2 in O2 [19]. The abdominal wall of the rats was reopened after the experiment to ensure the catheter was still in place. Likewise, control of potential damage to the intestine was determined macroscopically. The experiments were conducted in strict compliance with the national animal research license 2009/561-1622.

[9] = Size distribution by dynamic light scattering; assay type: physicochemical; details: DLS, mHBSS pH 5, 25 °C, 180 µM insulin or PTH(1-34), alone or mixed with 720 µM penetratin, N = 3, mean ± SD
Protocol: Size distributions according to the distribution by volume were determined using a Zetasizer Nano ZSP (Malvern Instruments, Worcestershire, UK) equipped with a 633 nm laser at 25 °C with 10–20 runs of 10 s and N = 3.

[10] = pH 5, apical incubation on Caco-2 monolayers
[11] = pH 6.5, apical incubation on Caco-2 monolayers
[12] = pH 7.4, apical incubation on Caco-2 monolayers
[13] = apical pH 5, 5 µM peptide + 20 µM penetratin
[14] = apical pH 6.5 and 7.4, 5 µM peptide + 20 µM penetratin
[15] = insulin (50 IU/kg) alone or 720 µM penetratin alone, pH 5, N = 6, mean ± SD

CC[C@H](C)[C@H](NC(=O)[C@H](CCC(=O)O)NC(=O)[C@H](CO)NC(=O)[C@@H](NC(=O)[C@@H](N)CO)C(C)C)C(=O)N[C@@H](CCC(N)=O)C(=O)N[C@@H](CC(C)C)C(=O)N[C@@H](CCSC)C(=O)N[C@@H](Cc1cnc[nH]1)C(=O)N[C@@H](CC(N)=O)C(=O)N[C@@H](CC(C)C)C(=O)NCC(=O)N[C@@H](CCCCN)C(=O)N[C@@H](Cc1cnc[nH]1)C(=O)N[C@@H](CC(C)C)C(=O)N[C@@H](CC(N)=O)C(=O)N[C@@H](CO)C(=O)N[C@@H](CCSC)C(=O)N[C@@H](CCC(=O)O)C(=O)N[C@@H](CCCN=C(N)N)C(=O)N[C@H](C(=O)N[C@@H](CCC(=O)O)C(=O)N[C@@H](Cc1c[nH]c2ccccc12)C(=O)N[C@@H](CC(C)C)C(=O)N[C@@H](CCCN=C(N)N)C(=O)N[C@@H](CCCCN)C(=O)N[C@@H](CCCCN)C(=O)N[C@@H](CC(C)C)C(=O)N[C@@H](CCC(N)=O)C(=O)N[C@@H](CC(=O)O)C(=O)N[C@H](C(=O)N[C@@H](Cc1cnc[nH]1)C(=O)N[C@@H](CC(N)=O)C(=O)N[C@@H](Cc1ccccc1)C(=O)O)C(C)C)C(C)C [PTH(1-34)]
ThT fluorescence above background, peptide alone (in words) [1]: no pronounced increase | remaining at 4 h, 5 µM [2, 10]: 66.6 ± 8.5% | remaining at 4 h, 5 µM [2, 11]: 71.7 ± 7.1% | remaining at 4 h, 5 µM [2, 12]: 73.6 ± 9.1% | peptide remaining after 4 h in physical mixture with penetratin, % of initially applied [3, 10]: 72.4 ± 3.0% | peptide remaining after 4 h in physical mixture with penetratin, % of initially applied [3, 11]: 67.0 ± 2.6% | peptide remaining after 4 h in physical mixture with penetratin, % of initially applied [3, 12]: 69.9 ± 2.7% | effect on permeation of lowering the sample pH from 6.5 or 7.4 to pH 5, without penetratin (in words) [4]: did not increase | penetratin-mediated transepithelial permeation / Papp (in words) [4, 13]: increase | penetratin-mediated transepithelial permeation / Papp (in words) [4, 14]: no significant increase | pH-dependent trend of penetratin-mediated delivery, Cmax of plasma PTH(1-34) and AUC ([5]; PTH(1-34) 1.2 mg/kg + penetratin 1:4, N = 6): pH 5 > pH 6.5 > pH 7.4 | visible precipitation on mixing with penetratin (in words) [6]: not evident | pI [7]: 8.3

RQIKIWFQNRRMKWKK [penetratin]
ThT fluorescence above background, peptide alone (in words) [1]: no pronounced increase | blood glucose level, % of initial value [8, 15]: did not affect | pI [7]: 12.3

insulin: Human recombinant insulin (5807.6 g/mol, Zn-free) provided by Sanofi
volume mean size [9]: 1579 ± 319 nm | ThT fluorescence above background, peptide alone (in words) [1]: increase | stability during incubation for 4 h (in words) ([3]; 5 µM insulin alone, pH 5, 6.5, or 7.4, apical incubation on Caco-2 monolayers, N = 3): remained stable | peptide remaining after 4 h in physical mixture with penetratin, % of initially applied [3, 10]: 89.9 ± 11.2% | peptide remaining after 4 h in physical mixture with penetratin, % of initially applied [3, 12]: remained stable | effect on permeation of lowering the sample pH from 6.5 or 7.4 to pH 5, without penetratin (in words) [4]: did not increase | penetratin-mediated transepithelial permeation / Papp (in words) [4, 13]: increase | penetratin-mediated transepithelial permeation / Papp (in words) [4, 14]: no significant increase | blood glucose level, % of initial value ([8]; insulin 50 IU/kg in physical mixture with 720 µM penetratin (1:4), pH 5, 60 min time-point, N = 6, mean ± SD): 38.5 ± 23.8% | blood glucose level, % of initial value ([8]; insulin 50 IU/kg in physical mixture with 720 µM penetratin (1:4), pH 6.5, after 60 min, N = 6, mean ± SD): 71.1 ± 17.8% | blood glucose level, % of initial value ([8]; insulin 50 IU/kg in physical mixture with 720 µM penetratin (1:4), pH 7.4, after 60 min, N = 6, mean ± SD): 83.3 ± 21.2% | blood glucose level, % of initial value [8, 15]: 86.9 ± 6.0% | blood glucose level, % of initial value ([8]; insulin (50 IU/kg) alone, pH 6.5, N = 6, mean ± SD): 88.9 ± 11.1% | blood glucose level (in words) ([8]; insulin (50 IU/kg) alone, pH 7.4, N = 6): did not affect | plasma insulin concentration and AUC on co-administration with penetratin (in words) ([5]; insulin 50 IU/kg + penetratin 1:4, pH 5, compared to pH 6.5 and 7.4, N = 6): greatest effect | plasma insulin concentration and AUC on co-administration with penetratin (in words) ([5]; insulin 50 IU/kg + penetratin 1:4, pH 6.5, N = 6): slight increase | plasma insulin concentration and AUC on co-administration with penetratin (in words) ([5]; insulin 50 IU/kg + penetratin 1:4, pH 7.4, N = 6): did not differ from administration of insulin alone
